One block for each molecule: values may come before it.
How the values were obtained:
Format in all cases: physicochemical
[1] = Dynamic Vapor Sorption (DVS) testing
Text: Samples of NaPB, TURSO, and modified formulation C1 blend were subjected to DVS testing to determine the magnitude of weight gain due to humidity.

[2] = Forced degradation studies (thermal, thermal-humidity, light, oxidation, acid, base); settings: for degradation of API: API alone
Text: Each API and the final formulation (referred to as “AMX powder in sachet”) containing both APIs were also subjected to forced degradation studies. The study included stressing samples of PB (sodium phenylbutyrate) API, TURSO API, placebo, and AMX Powder in Sachet under thermal, thermal-humidity, light, oxidation, acid, or base conditions (Table 49).

[3] = Bulk density, tapped density, Hausner ratio and Carr's index; settings: powder; calculated from bulk and tapped density
Experimental: Bulk density was calculated for each API and blend by gently pouring powder into a 25 mL graduated cylinder. Tapped density was calculated using a tapped volumeter to compact each powder using 100-tap increments until volume change was <5%. Hausner ratio and Carr's index were then calculated using bulk density and tapped density. Formulation C was selected based on flow characteristics. Carr's index, in addition to being a measure of compressibility, may also be used to determine the flow properties of a material. […] Acceptable flow property (as determined by the packaging equipment used) was a minimum of a Carr's index of under 25, with a Carr's index of below 20 being preferable.
Each API was blended and roller compacted with excipients separately to determine if the proximity of the dual APIs in the blend or granules was responsible for agglomeration. The resulting granules were then recombined and blended before filling test sachets. Bulk and tapped densities of each blend were measured prior to roller compaction. For this experiment, all silica were used at 1% W/W. Aerosil 200 was used as a negative control while Syloid 244FP and Syloid 63FP were used to remove moisture from the APIs to determine if APIs would agglomerate with reduced local levels of water. […]

[4] = Loss on Drying (LOD) testing; settings: excipients
Experimental: After storage in sealed bottles for about one week, slight agglomeration of blends was observed.
LOD testing was performed on recovered agglomerated blend (PD2016-015-33B) after ˜2 hours of drying at 50° C. to determine the degree of moisture uptake. Results were compared against a non-agglomerated blend that had been stored in a sealed bottle (PD2016-015-29A).

[5] = Base 3 Days (1.0N NaOH, 50° C.)
[6] = Base 7 Days (1.0N NaOH, 50° C.)
[7] = Thermal-Humidity (85° C. + 1.0 mL water, 10 days)

- DVS change in mass ([1]; above 45% RH): massive fluctuations in mass
- Fluctuations in mass ([1]; moisture uptake): up to 50%
- degradation of API ([2]; any of the forced degradation conditions studied): did not degrade
- % PB / % (PB) Potency ([2]; Acid 3 Days (1.0N HCl, 50° C.)): 99.1%
- % PB remaining ([2]; Acid 3 Days (1.0N HCl, 50° C.)): 99.9%
- % RMBD (Relative Mass Balance Deficit), PB ([2]; Acid 3 Days (1.0N HCl, 50° C.)): 99.0%
- % Total RS / % Total PB Impurity ([2]; Acid 3 Days (1.0N HCl, 50° C.)): 1.18%
- Mass Balance / PB Sum ([2]; Acid 3 Days (1.0N HCl, 50° C.)): 100.28
- % PB / % (PB) Potency ([2]; Acid 7 Days (1.0N HCl, 50° C.)): 99.7%
- % PB remaining ([2]; Acid 7 Days (1.0N HCl, 50° C.)): 100.5%
- % RMBD (Relative Mass Balance Deficit), PB ([2]; Acid 7 Days (1.0N HCl, 50° C.)): 99.6%
- % Total RS / % Total PB Impurity ([2]; Acid 7 Days (1.0N HCl, 50° C.)): 1.14%
- Mass Balance / PB Sum ([2]; Acid 7 Days (1.0N HCl, 50° C.)): 100.84
- % PB remaining [2, 5]: 99.7%
- % RMBD (Relative Mass Balance Deficit), PB [2, 5]: 98.8%
- % Total RS / % Total PB Impurity [2, 5]: 1.11%
- Mass Balance / PB Sum [2, 5]: 100.01
- % PB / % (PB) Potency [2, 6]: 99.8%
- % PB remaining [2, 6]: 100.6%
- % RMBD (Relative Mass Balance Deficit), PB [2, 6]: 99.6%
- % Total RS / % Total PB Impurity [2, 6]: 1.10%
- Mass Balance / PB Sum [2, 6]: 100.90
- % PB / % (PB) Potency ([2]; Control): 99.2%
- % Total RS / % Total PB Impurity ([2]; Control): 2.07%
- Mass Balance / PB Sum ([2]; Control): 101.27
- % PB / % (PB) Potency ([2]; Light (1 × ICH condition)): 98.3%
- % PB remaining ([2]; Light (1 × ICH condition)): 99.3%
- % RMBD (Relative Mass Balance Deficit), PB ([2]; Light (1 × ICH condition)): 99.1%
- % Total RS / % Total PB Impurity ([2]; Light (1 × ICH condition)): 0.74%
- Mass Balance / PB Sum ([2]; Light (1 × ICH condition)): 99.04
- % PB / % (PB) Potency ([2]; Light Control): 99.0%
- % Total RS / % Total PB Impurity ([2]; Light Control): 0.96%
- Mass Balance / PB Sum ([2]; Light Control): 99.96
- % PB remaining ([2]; Oxidation (3% H2O2)): 99.4%
- % RMBD (Relative Mass Balance Deficit), PB ([2]; Oxidation (3% H2O2)): 100.5%
- % Total RS / % Total PB Impurity ([2]; Oxidation (3% H2O2)): 3.13%
- Mass Balance / PB Sum ([2]; Oxidation (3% H2O2)): 101.73
- % PB / % (PB) Potency ([2]; Thermal (85° C., 10 days)): 98.9%
- % PB remaining ([2]; Thermal (85° C., 10 days)): 99.7%
- % RMBD (Relative Mass Balance Deficit), PB ([2]; Thermal (85° C., 10 days)): 101.5%
- % Total RS / % Total PB Impurity ([2]; Thermal (85° C., 10 days)): 3.93%
- Mass Balance / PB Sum ([2]; Thermal (85° C., 10 days)): 102.83
- % PB / % (PB) Potency [2, 7]: 99.3%
- % PB remaining [2, 7]: 100.1%
- % RMBD (Relative Mass Balance Deficit), PB [2, 7]: 99.2%
- % Total RS / % Total PB Impurity [2, 7]: 1.16%
- Mass Balance / PB Sum [2, 7]: 100.48
- Carr's index [3]: 39.2
SMILES: O=C(O)CCCc1ccccc1 [NaPB, sodium phenylbutyrate]

- % RMBD, TUDCA ([2]; Acid 3 Days (1.0N HCl, 50° C.)): 99.8%
- % TUDCA / % (TUDCA) Potency ([2]; Acid 3 Days (1.0N HCl, 50° C.)): 100.0%
- % TUDCA remaining ([2]; Acid 3 Days (1.0N HCl, 50° C.)): 99.8%
- % Total RS / % Total TUDCA Impurity ([2]; Acid 3 Days (1.0N HCl, 50° C.)): 0.23%
- Sum / TUDCA Sum ([2]; Acid 3 Days (1.0N HCl, 50° C.)): 100.23
- % RMBD, TUDCA ([2]; Acid 7 Days (1.0N HCl, 50° C.)): 97.0%
- % TUDCA / % (TUDCA) Potency ([2]; Acid 7 Days (1.0N HCl, 50° C.)): 97.2%
- % TUDCA remaining ([2]; Acid 7 Days (1.0N HCl, 50° C.)): 97.0%
- % Total RS / % Total TUDCA Impurity ([2]; Acid 7 Days (1.0N HCl, 50° C.)): 0.20%
- Sum / TUDCA Sum ([2]; Acid 7 Days (1.0N HCl, 50° C.)): 97.40
- % Degradation Observed / Conclusion ([2]; Acid: 10 mL of 1.0N HCl per sample for 3 days at 50° C.): No significant
- % RMBD, TUDCA [2, 5]: 94.9%
- % TUDCA / % (TUDCA) Potency [2, 5]: 95.1%
- % TUDCA remaining [2, 5]: 94.9%
- % Total RS / % Total TUDCA Impurity [2, 5]: 0.22%
- Sum / TUDCA Sum [2, 5]: 95.32
- % RMBD, TUDCA [2, 6]: 82.6%
- % TUDCA / % (TUDCA) Potency [2, 6]: 82.8%
- % TUDCA remaining [2, 6]: 82.6%
- % Total RS / % Total TUDCA Impurity [2, 6]: 0.18%
- Sum / TUDCA Sum [2, 6]: 82.98
- % TUDCA / % (TUDCA) Potency ([2]; Control): 100.2%
- % Total RS / % Total TUDCA Impurity ([2]; Control): 0.22%
- Sum / TUDCA Sum ([2]; Control): 100.42.
- % RMBD, TUDCA ([2]; Light (1 × ICH condition)): 103.2%
- % TUDCA / % (TUDCA) Potency ([2]; Light (1 × ICH condition)): 99.5%
- % TUDCA remaining ([2]; Light (1 × ICH condition)): 103.2%
- % Total RS / % Total TUDCA Impurity ([2]; Light (1 × ICH condition)): 0.24%
- Sum / TUDCA Sum ([2]; Light (1 × ICH condition)): 99.74
- % TUDCA / % (TUDCA) Potency ([2]; Light Control): 96.4%
- % Total RS / % Total TUDCA Impurity ([2]; Light Control): 0.22%
- Sum / TUDCA Sum ([2]; Light Control): 96.62
- % Degradation Observed / Conclusion ([2]; Light: 1 × ICH condition (White light NLT 1.2 million lux hours and UV light NLT 200 W hours/m^2)): No significant
- % RMBD, TUDCA ([2]; Oxidation (3% H2O2)): 98.8%
- % TUDCA / % (TUDCA) Potency ([2]; Oxidation (3% H2O2)): 97.1%
- % TUDCA remaining ([2]; Oxidation (3% H2O2)): 93.9%
- % Total RS / % Total TUDCA Impurity ([2]; Oxidation (3% H2O2)): 1.36%
- Sum / TUDCA Sum ([2]; Oxidation (3% H2O2)): 98.46
- % Degradation Observed / Conclusion ([2]; Oxidation: 10 mL of 3% H2O2 per sample): ~3%
- % RMBD, TUDCA ([2]; Thermal (85° C., 10 days)): 100.5%
- % TUDCA / % (TUDCA) Potency ([2]; Thermal (85° C., 10 days)): 100.6%
- % TUDCA remaining ([2]; Thermal (85° C., 10 days)): 100.4%
- % Total RS / % Total TUDCA Impurity ([2]; Thermal (85° C., 10 days)): 0.28%
- Sum / TUDCA Sum ([2]; Thermal (85° C., 10 days)): 100.88
- % RMBD, TUDCA [2, 7]: 0.0%
- % TUDCA remaining [2, 7]: 0%
- Sum / TUDCA Sum [2, 7]: 0.00
- % Degradation Observed / Conclusion ([2]; Thermal-Humidity: 85° C. + 1.0 mL water per sample for 10 days): Full degradation/
- % Degradation Observed / Conclusion ([2]; Thermal: 85° C. for 10 days): No significant
SMILES: C[C@H](CCC(=O)NCCS(=O)(=O)O)[C@H]1CC[C@H]2[C@@H]3[C@@H](O)C[C@@H]4C[C@H](O)CC[C@]4(C)[C@H]3CC[C@]12C [TUDCA API]

- degradation of API ([2]; Thermal-Humidity condition): no TURSO peak was detected
- degradation of API ([2]; acidic condition, by Day 7): degraded slightly
- degradation of API ([2]; base condition, by Day 3): degraded slightly
- degradation of API ([2]; base condition, by Day 7): ~17%
- degradation of API ([2]; light condition): did not degrade
- degradation of API ([2]; oxidation condition, by Day 3): degraded slightly
- degradation of API ([2]; thermal condition): did not degrade
- % Degradation Observed / Conclusion ([2]; Acid: 10 mL of 1.0N HCl per sample for 3 days at 50° C., listed as TURSO API): None
- % Degradation Observed / Conclusion ([2]; Acid: 10 mL of 1.0N HCl per sample for 7 days at 50° C.): ~3%
- % Degradation Observed / Conclusion ([2]; Base: 10 mL of 1.0N NaOH per sample for 3 days at 50° C.): ~5%
- % Degradation Observed / Conclusion ([2]; Base: 10 mL of 1.0N NaOH per sample for 7 days at 50° C.): ~17%
- % Degradation Observed / Conclusion ([2]; Light: 1 × ICH condition (White light NLT 1.2 million lux hours and UV light NLT 200 W hours/m^2), listed as TURSO API): None
- % Degradation Observed / Conclusion ([2]; Oxidation: 10 mL of 3% H2O2 per sample, listed as TURSO API): 3%
- % Degradation Observed / Conclusion ([2]; Thermal-Humidity: 85° C. + 1.0 mL water per sample for 10 days, listed as TURSO API): 100%
- % Degradation Observed / Conclusion ([2]; Thermal: 85° C. for 10 days, listed as TURSO API): None
- Carr's index [3]: 24.2
SMILES: C[C@H](CCC(=O)NCCS(=O)(=O)O)[C@H]1CC[C@H]2[C@@H]3[C@@H](O)C[C@@H]4C[C@H](O)CC[C@]4(C)[C@H]3CC[C@]12C [TURSO, tauroursodeoxycholic acid]

- water uptake by loss-on-drying (LOD) testing [4]: neither exhibited massive water uptake
SMILES: OC[C@@H](O)[C@@H](O)[C@H](O)[C@@H](O)CO [sorbitol]

Source: patent publication US11583542B2, “Compositions of bile acids and phenylbutyrate compounds” (Amylyx Pharmaceuticals Inc., priority 2019, dated 2023)
